Experimental data taken from patent US9133180B2, “Aurora and FLT3 kinases modulators” (SAREUM LIMITED, priority 2012, dated 2015).

Experiments:
FLT3 kinase = FLT3 kinase (Homo sapiens (Human), UniProt P36888); assay: FLT3 kinase 33P-ATP filter assay (Reaction Biology Corp.); type: biochemical
Protocol: (§1) The ability of the compounds of the invention to inhibit FLT3 kinase and Aurora A and Aurora B kinases was determined using the assays described below.
(§2) Kinase assays were performed at Reaction Biology Corp., Malvern, Pa., USA, using the following general procedure:
(§3) 1) Prepare indicated substrate in freshly prepared Base Reaction Buffer (20 mM Hepes pH 7.5, 10 mM MgCl2, 1 mM EGTA, 0.02% Brij35, 0.02 mg/ml BSA, 0.1 mM Na3VO4, 2 mM DTT, 1% DMSO).
(§4) 2) Deliver cofactors (1.5 mM CaCl2, 16 ug/mL Calmodulin, 2 mM MnCl2) to the substrate solution above.
(§5) 3) Deliver indicated kinase into the substrate solution and gently mix
(§6) 4) Deliver varying concentrations of test compound in DMSO into the kinase reaction mixture.
(§7) 5) Deliver ^33P-ATP (specific activity 0.01 µCi/µL final) into the reaction mixture to initiate the reaction.
(§8) 6) Incubate kinase reaction for 120 min at room temperature.
(§9) 7) Reactions are spotted onto P81 ion exchange filter paper (Whatman #3698-915)
(§10) 8) Unbound phosphate is removed by washing filters extensively in 0.75% phosphoric acid.
(§11) 9) ^33P signal was determined using Typhoon phosphorimagers (GE Healthcare).
(§12) Substrates: Kemptide=[H-LRRASLG] Abltide=[[…]]

Aurora B kinase = Aurora B kinase (Homo sapiens (Human), UniProt Q96GD4); assay: Aurora B kinase 33P-ATP filter assay (Reaction Biology Corp.); type: biochemical
Protocol: as §1, §2, §3, §4, §5, §6, §7, §8, §9, §10, §11, §12

RPMI8226 = assay: CellTiter-Blue assay, haematological cell line; type: cell-based; conditions: Homo sapiens, RPMI-8226, 96 h; RPMI8226 (MM), four days treatment
Protocol: Cells were harvested from exponential phase cultures, counted and plated in 96 well flat-bottom microtiter plates at a cell density of 20,000-90,000 cells/well. After a 24 h recovery period to allow the cells to resume exponential growth, 10 μl of culture medium (four control wells/plate) or of culture medium with test compound were added. The compounds were applied in duplicates at ten concentrations and treatment continued for four days. After treatment of cells, 10 μl/well CellTiter-Blue® reagent was added. Following an incubation period of up to four hours, fluorescence (FU) was measured by using the EnVision Xcite multilabel reader (excitation λ=531 nm, emission λ=615 nm). The compounds were tested in two to four independent experiments for each cell line.

Chain of FLT3 kinase (P36888 27-993): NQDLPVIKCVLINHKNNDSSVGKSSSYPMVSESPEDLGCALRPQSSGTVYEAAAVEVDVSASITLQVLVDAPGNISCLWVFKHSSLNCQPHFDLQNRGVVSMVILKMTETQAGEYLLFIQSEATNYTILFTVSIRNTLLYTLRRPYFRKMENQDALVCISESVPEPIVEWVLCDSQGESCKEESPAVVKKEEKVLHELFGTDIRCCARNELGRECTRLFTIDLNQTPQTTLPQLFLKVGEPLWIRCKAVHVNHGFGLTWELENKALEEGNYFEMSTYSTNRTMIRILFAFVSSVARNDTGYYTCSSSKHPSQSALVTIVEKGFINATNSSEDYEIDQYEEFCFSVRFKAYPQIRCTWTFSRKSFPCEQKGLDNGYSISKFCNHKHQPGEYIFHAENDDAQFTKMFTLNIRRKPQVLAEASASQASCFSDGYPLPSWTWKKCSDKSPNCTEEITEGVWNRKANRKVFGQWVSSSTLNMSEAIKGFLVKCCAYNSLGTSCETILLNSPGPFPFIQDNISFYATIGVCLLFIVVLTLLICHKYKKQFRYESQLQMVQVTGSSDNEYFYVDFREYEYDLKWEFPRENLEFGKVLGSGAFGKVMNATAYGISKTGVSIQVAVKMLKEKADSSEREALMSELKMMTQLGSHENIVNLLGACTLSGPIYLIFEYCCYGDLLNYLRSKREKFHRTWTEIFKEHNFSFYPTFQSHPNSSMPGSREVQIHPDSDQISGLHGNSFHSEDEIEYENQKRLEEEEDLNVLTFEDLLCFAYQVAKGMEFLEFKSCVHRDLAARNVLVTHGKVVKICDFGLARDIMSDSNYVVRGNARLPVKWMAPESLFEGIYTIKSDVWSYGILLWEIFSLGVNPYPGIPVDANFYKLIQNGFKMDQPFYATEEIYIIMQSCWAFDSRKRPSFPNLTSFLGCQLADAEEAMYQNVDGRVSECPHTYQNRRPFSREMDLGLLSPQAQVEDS
Chain of Aurora B kinase (Q96GD4 whole entry): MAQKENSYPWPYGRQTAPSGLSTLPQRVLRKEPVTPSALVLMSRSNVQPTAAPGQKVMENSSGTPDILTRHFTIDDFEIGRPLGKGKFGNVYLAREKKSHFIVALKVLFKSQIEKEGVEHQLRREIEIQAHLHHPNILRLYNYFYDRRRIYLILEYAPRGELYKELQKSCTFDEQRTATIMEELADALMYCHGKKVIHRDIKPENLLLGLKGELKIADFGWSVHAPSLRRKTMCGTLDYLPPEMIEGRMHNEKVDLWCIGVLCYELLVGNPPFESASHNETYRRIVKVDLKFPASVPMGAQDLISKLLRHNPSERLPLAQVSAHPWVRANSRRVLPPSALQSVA

SMILES	IC50 (FLT3 kinase) [nM]	IC50 (Aurora B kinase) [nM]	IC50 (RPMI8226) [nM]
Cc1cc(F)c2[nH]ccc2c1-c1nc(C(N)=O)c(-c2ccc(N3CCNC(C)(C)C3)cc2)o1 [Example 7, 2-(5-Methyl-7-Fluoro-1H-Indol-4-yl)-5-[4-(3,3-dimethyl-piperazin-1-yl)-phenyl]-oxazole-4-carboxylic acid amide]	0.48		
Cc1ccc2[nH]ccc2c1-c1nc(C(N)=O)c(-c2ccc(N3CCNC(C)(C)C3)cc2)o1 [Example 2, 2-(5-Methyl-1H-Indol-4-yl)-5-[4-(3,3-dimethyl-piperazin-1-yl)-phenyl]-oxazole-4-carboxylic acid amide]	0.77	5.9	2140
